Test results from patent publication US4626542A, “4-(5H-dibenzo[a,d]cyclohepten-5-yl)piperidine compounds, pharmaceutical compositions and methods” (Merck & Co., Inc., priority 1984, dated 1986).

System: Rat Aorta
Assay: Inhibition of calcium chloride-induced contraction of depolarized vascular smooth muscle segments (rat aorta)
Type: cell-based, rat (male Sprague-Dawley)
Conditions: Rattus norvegicus, at 10^-7 M; 1.0 mM calcium chloride-induced contraction; read-out: Percent Inhibition of Rat Aorta
Protocol: The property may be observed in a test in which segments of vascular smooth muscle obtained from male Sprague-Dawley rats are suspended in physiological salt solution in a tissue bath instrumented for recording contractions. After the tissue has been equilibrated, washed in calcium-free physiological salt solution and then depolarized, 1.0 mM calcium chloride is re-added to induce contraction. After the contraction has reached a plateau, tissues are washed and a test compound or vehicle is added to determine the effect on a second contraction achieved by the above cyclic protocol. From measuring the initial contraction as well as the second contraction in the presence of the test compound, the extent of inhibition may be calculated. The results of these tests for representative compounds in the compositions of the present invention are seen in the following table. The results are with tests conducted at very low concentrations of 10^-7 M or less.
`CN1CCC(C2c3ccccc3C=Cc3ccc(Br)cc32)CC1` (racemic) [4-(3-Bromo-5H-dibenzo[a,d]cyclohepten-5-yl)-1-methylpiperidine, equatorial isomer] showed an inhibition at 0.1 µM of 80%. Work on `C1=Cc2ccccc2C(C2CCN(C3CCCCC3)CC2)c2ccccc21` [4-(5H-Dibenzo[a,d]cyclohepten-5-yl)-1-cyclohexylpiperidine] yielded an inhibition at 0.1 µM of 48%. `CC(C)N1CCC(C2c3ccccc3C=Cc3ccccc32)CC1` [4-(5H-Dibenzo[a,d]cyclohepten-5-yl)-1-isopropylpiperidine] gave an inhibition at 0.1 µM of 44%. Molecule `CN1CCC(C2c3ccccc3C=Cc3ccccc32)CC1` [4-(5H-Dibenzo[a,d]cyclohepten-5-yl)-1-methylpiperidine, axial isomer] has an inhibition at 0.1 µM of 30%. In the case of `C[N+]1([O-])CCC(C2c3ccccc3C=Cc3ccccc32)CC1` (stereo not drawn) [4-(5H-Dibenzo[a,d]cyclohepten-5-yl)-1-methylpiperidine-1-oxide monohydrate], the inhibition at 0.1 µM is reported as 17%. In the case of `C1=Cc2ccccc2C(C2CCNCC2)c2ccccc21` [4-(5H-Dibenzo[a,d]cyclohepten-5-yl)piperidine], the inhibition at 0.1 µM is reported as 39%.

Same assay, conditions: Rattus norvegicus, at 10^-8 M; 1.0 mM calcium chloride-induced contraction; read-out: Percent Inhibition of Rat Aorta
`COc1ccc2c(c1)C(C1CCN(C)CC1)c1ccccc1C=C2` (racemic) [4-(3-Methoxy-5H-dibenzo[a,d]cyclohepten-5-yl)-1-methylpiperidine] gave an inhibition at 0.01 µM of 37%. Molecule `CN1CCC(C2c3ccccc3C=Cc3ccccc32)CC1` [4-(5H-Dibenzo[a,d]cyclohepten-5-yl)-1-methylpiperidine, equatorial isomer] has an inhibition at 0.01 µM of 11%.

Same assay, conditions: at 10^-7 M; 1.0 mM calcium chloride-induced contraction
For `CN1CCC(C2c3ccccc3C=Cc3ccc(Br)cc32)CC1` (racemic) [5H--ax (±)4-(3-Bromo-5H--dibenzo[a,d]cyclohepten-5-yl)-1-met] [4-(3-Bromo-5H-dibenzo[a,d]cyclohepten-5-yl)-1-methylpiperidine, axial isomer], the “Percent Inhibition of Rat Aorta” value was 79%. For `CN1CCC(C2c3ccccc3C=Cc3ccc(Br)cc32)CC1` (single isomer, unassigned; (+)) [5H--eq (+)4-(3-Bromo-5H--dibenzo[a,d]cyclohepten-5-yl)-1-met] [(+)-4-(3-bromo-5H-dibenzo[a,d]cyclohepten-5-yl)-1-methylpiperidine], the “Percent Inhibition of Rat Aorta” value was 22%. For `CN1CCC(C2c3ccccc3C=Cc3ccc(Br)cc32)CC1` (single isomer, unassigned; (-)) [5H--eq (-)4-(3-Bromo-5H--dibenzo[a,d]cyclohepten-5-yl)-1-met] [(-)-4-(3-bromo-5H-dibenzo[a,d]cyclohepten-5-yl)-1-methylpiperidine], the “Percent Inhibition of Rat Aorta” value was 92%.

System: not listed separately
Assay: Isomerization of the 5H axial to the 5H equatorial isomer followed by 1H NMR
Type: physicochemical
Conditions: 3.67 milligrams in 1 milliliter CDCl3, heated at 55° C.±1° C.
Protocol: Isomerization of the 5H axial isomer of 4-(5H-dibenzo[a,d]cyclohepten-5-yl)-1-methylpiperidine to the 5H equatorial isomer was carried out in an NMR tube. 3.67 milligrams of the axial isomer was dissolved in 1 milliliter of CDCl3 at 24° C. and the sample inserted into the probe of a Nicolet NT-360 NMR spectrometer where it was heated at 55° C.±1° C. NMR spectra (^1 H) were obtained every 864 seconds until isomerization to the equatorial isomer was complete as evidenced by the disappearance of the singlet corresponding to the 5H-axial proton and appearance of the 5H-equatorial proton (about 48,727 seconds).
For `CN1CCC(C2c3ccccc3C=Cc3ccccc32)CC1` [4-(5H-Dibenzo[a,d]cyclohepten-5-yl)-1-methylpiperidine, axial isomer], the “time until isomerization to the equatorial isomer was complete” value was “about 48,727 seconds”.
